Experimental data reported in patent US9725695B2, “Stem cell defined media for xeno-free and feeder free conditions and uses thereof” (The Regents of the University of California, priority 2010, dated 2017).

Assays:
[1] = test system: H-9 cells; test: Kinetic growth of H-9 cells on feeders in PB12/RCCD media formulations (Integral, Px,max, μ) with Statistica effect/regression models; format: cell-based, human; conditions: codified values
[2] = test system: H-9 cells; test: as above; format: cell-based, human; parameters: Effect on Integral / Effect on μ: unit not given here; conditions: for Effect on Integral / Effect on Px, max / Effect on μ: PB12, level −1 to +1 (ranges Table 2), least square method; for Regression coefficient (Linear), Px, max / Regression coefficient (Quadratic), Px, max / Regression coefficient (Linear), Integral: 1st RCCD, codified values; for Regression coefficient (Linear), Px, max / Regression coefficient (Quadratic), Px, max: R^2 = 80.0%; for Regression coefficient (Linear), Integral: R^2 = 86.4%
Description: A Placket-Burman matrix of 12 independent conditions (PB12) was used (Table 1), according to the Design of Experiments (DOE) methodology for the screening of 8 factors (RODRIGUES & IEMMA, 2005). […] Since this first step, the PB12, is a screening step, whenever it was possible the concentration of the factor was set as zero. • Condition 0: represents the central condition of the DOE, being the mean value obtained from averaging the values for levels −1 and +1. In addition to the central condition, the “main” central condition is defined as a state when all factors are set to condition 0.
In total, 14 different conditions were examined: 12 related to the PB12 matrix, 1 related to the “main” central condition that was performed in quadruplicates for the error estimation and a control condition with KSR. The basal media was: a 1:1 mixture 1:1 of DMEM and Ham's F12 (DMEM/F12; Mediatech, Manassas, Va.; catalog number 10-092), 1% NEAA, 110 μM β-mercaptoethanol (BME; Sigma-Aldrich, St. Louis, Mo.; catalog number M7522), 50 μg/mL gentamicin sulfate (Mediatech, Manassas, Va.; catalog number 30-005-CR) and 8 ng/mL of FGF-2 (Peprotech, Rocky Hill, N.J.; catalog number 100-18B). FGF-2 was reconstituted in PBS at 100 ug/mL and was added to the media for a final concentration of 8 ng/mL at the start of the culture. During the culture period, additional FGF-2 (8 ng/mL) was added directly to the media on a daily basis.
Every 24 hours one well from each condition and 4 wells from the main central condition were enzymatic dissociated and counted with the help of an automatic counter (NucleoCounter NC-100), for an unbiased measure of cell growth. In that way, by the end of the 5 days, a kinetic curve was obtained for every single condition (FIG. 1). Readouts like integral of cells (integral; defined as area below the curve), maximum productivity (Px,max; defined as the highest value obtained from dividing cell number by time) or and specific global ( ) growth rate (or speed of cell growth obtained from the formula dX/dt=pX) were calculated in order to perform the statistics comparing all different curves (Table 3).
Through the estimation of the effects from the least square method and the calculation of the errors obtained by the replicates performed on the main central condition (formulation 13), “t” was calculated as the ratio of effect and error.
By comparing the calculated “t” value with “t” values from a Student's “t” distribution table for a bilateral distribution, the p-value was obtained for each parameter in every readout.
Aiming to understand better the contribution of each protein in the formulation of the media, an optimization step was performed using the Three-Variable Rotatable Central Composite Design (RCCD; Rodrigues and lemma, 2005). The concentration range of each supplement was the same as given in Table 2 for the PB12 design, with the same concentration for the level 0, −1, and +1 condition.
The basal media was: a 1:1 mixture 1:1 of DMEM and Ham's F12 (DMEM/F12; Mediatech, Manassas, Va.; catalog number 10-092), 1.5% NEAA, 8.46 mg/L citric acid, 0.89×10^−4 mM sodium selenite, 2 mM glutamine (total of 4.5 mM), BME 110 μM, gentamicin sulfate 50 μg/mL and 8 ng/mL of FGF-2.
As before, kinetics growth of H-9 cells were obtained and readouts like Integral and Px, max were calculated (Table 6).
Through the use of Statistica software (StatSoft, Tulsa, Okla.), a second order mathematical model was generated in order to evaluate the real contribution of each supplement (Table 7).

[3] = test system: wild-type iPS line; test: Feeder free 2-variable RCCD (Activin A, TGF-beta-1): self-renew (final cell growth achieved); format: cell-based; conditions: first feeder-free 2-variable RCCD, R^2 = 90.3%, p < 0.1; for Self-renew regression Coefficient (Linear): linear term of coded variable; for Self-renew regression Coefficient (Quadratic): quadratic term of coded variable
Description: (§1) Aiming to improve the efficacy of the media, stimulating other pathways, besides the FGF-path, were explored. The Nodal/Activin pathway is related to pluripotency/self-renew (XIAO, 2006), than the factors from TGF superfamily. Activin A (Peprotech, Rocky Hill, N.J.; catalog number 120-14E) and TGF-beta-1 (Peprotech, Rocky Hill, N.J.; catalog number 100-21C), were investigated in a 2-variable RCCD (Table 20).
(§2) In these experiments, a wild-type iPS line was used. In the same fashion as the feeder conditions, cells were homogenously inoculated in several plates in each different formulation. The main difference in this step was the readout analyzed. Kinetic growth were not obtained due to the problems related to managing several feeder-free plates. Thus, instead of calculating integral and Px,max, two other readouts were used. The first one was the final cell growth achieved, called here as self-renew and the other one was percent of pluripotency, obtained from FACs analyzes by the dual staining with SSEA-4 and Nanog.
Analyzing the model, it is clear that TGF-beta-1 and Activin A have similar parameters. Additionally, they got a negative interaction with each other; meaning that, from an optimization point of view, if one is raised the other should be diminished. Taking a look into the surface gives a better clue of the best regions.

[4] = test system: wild-type iPS line; test: Feeder free 2-variable RCCD (Activin A, TGF-beta-1): percent of pluripotency, FACs dual staining SSEA-4 and Nanog; format: cell-based; conditions: p>0.1
Description: as §1, §2

[5] = test system: H-9s; test: H-9s concentration after 3 days in low protein formulation with different BME concentrations; format: cell-based, human; conditions: 20 μM, low protein amount formulation, p<0.01, t-test
Description: FIG. 7: H-9s concentration after 3 days of culture in low protein based formulation with different BME concentrations. Error bars were generated through independent quadruplicates.
Having a meticulous comparison between all RCCDs performed, it was noticed that BME concentration was different due to supplier differences. […] Still, considering that BME is not just an antioxidant but a denaturizing chemical as well, it is expected that this compound would have a greater effect on media formulated with low amount of proteins.
Astonishingly, BME is normally added and recommended in KSR based media and feeder free media like mTeSR1 and StemPro. However, the negative effect of this compound is probably buffered by the huge amount of proteins that these media got, around 10 grams per liter, while the invention provides at least 20 times less. This discovery represents a breakthrough in terms of what are the real needs of an ES cell, drastically changing the media and cell's environment.

[6] = test system: H-9s; conditions: extra amount of bicarbonate (2.4 g/L vs 1.2 g/L)
Description: A simple test was performed with KSR formulation, just changing basal media supplier and consequently just changing the amount of buffer.

[7] = RCCD for NEAA, citric acid and glutamine, R^2 = 89.5%
[8] = RCCD for NEAA, citric acid and glutamine, R^2 = 90.7%

O=C(O)CC(O)(CC(=O)O)C(=O)O [Citric Acid, citric acid]
Regression coefficient (Linear), Px, max [1, 7]: −0.0020 | Regression coefficient (Quadratic), Px, max [1, 7]: −0.0104 | Regression coefficient (Linear), Integral [1, 8]: 1.63 | Regression coefficient (Quadratic), Integral [1, 8]: −33.83 | Effect on Integral [2]: 17.09 | Effect on Px, max [2]: 0.0060 | Effect on μ [2]: 0.0065

Activin A: Activin A (Peprotech), factor from TGF superfamily
Self-renew regression Coefficient (Linear) [3]: −0.430 | Self-renew regression Coefficient (Quadratic) [3]: 0.798 | statistical relevance of model parameters for pluripotency [4]: no parameters either related to Activin A or TGF-beta-1 that were statistically relevant

O=[Se]([O-])[O-].[Na+].[Na+] [Selenite, sodium selenite]
Effect on Integral [2]: 7.46 | Effect on Px, max [2]: 0.0029 | Effect on μ [2]: 0.0098

NC(=O)CC[C@H](N)C(=O)O [Glut, glutamine]
Regression coefficient (Linear), Px, max [1, 7]: −0.0010 | Regression coefficient (Quadratic), Px, max [1, 7]: −0.0050 | Regression coefficient (Linear), Integral [1, 8]: 2.10 | Regression coefficient (Quadratic), Integral [1, 8]: −10.20 | Effect on Integral [2]: −39.15 | Effect on Px, max [2]: −0.0088 | Effect on μ [2]: 0.0023

OCCS [BME, β-mercaptoethanol]
effect on ES cell growth [5]: statistically negative effect

Transf.: CellPrime rTransferrin AF recombinant human transferrin (Millipore)
Regression coefficient (Quadratic), Integral ([1]; 1st RCCD, R^2 = 86.4%): 4.06 | Regression coefficient (Linear), Px, max ([1]; 2nd RCCD, R^2 = 37.9%): 0.0027 | Regression coefficient (Quadratic), Px, max ([1]; 2nd RCCD, R^2 = 37.9%): −0.0014 | Regression coefficient (Linear), Integral ([1]; 2nd RCCD, R^2 = 62.7%): 18.70 | Regression coefficient (Quadratic), Integral ([1]; 2nd RCCD, R^2 = 62.7%): 5.70 | Regression coefficient (Linear), Integral ([1]; 3rd RCCD, R^2 = 65.8%): 4.61 | Regression coefficient (Quadratic), Integral ([1]; 3rd RCCD, R^2 = 65.8%): 3.59 | Regression coefficient (Linear), Px, max ([1]; 3rd RCCD, R^2 = 86.4%): 0.0013 | Regression coefficient (Quadratic), Px, max ([1]; 3rd RCCD, R^2 = 86.4%): 0.0018 | Regression coefficient (Linear), Px, max ([1]; 4th RCCD, R^2 = 69.0%): 0.0021 | Regression coefficient (Quadratic), Px, max ([1]; 4th RCCD, R^2 = 69.0%): −0.0034 | Regression coefficient (Linear), Integral ([1]; 4th RCCD, R^2 = […]): 1.17 | Regression coefficient (Quadratic), Integral ([1]; 4th RCCD, R^2 = […]): −14.34 | Regression coefficient (Linear), Px, max [2]: 0.0107 | Regression coefficient (Quadratic), Px, max [2]: 0.0028 | Regression coefficient (Linear), Integral [2]: 43.29 | Effect on Integral [2]: 65.44 | Effect on Px, max [2]: 0.0189 | Effect on μ [2]: 0.0169

TGF-beta-1: TGF-beta-1 (Peprotech), factor from TGF superfamily
statistical relevance of model parameters for pluripotency [4]: no parameters either related to Activin A or TGF-beta-1 that were statistically relevant

NCCO [Etan., ethanolamine]
Effect on Integral [2]: −0.56 | Effect on Px, max [2]: −0.0055 | Effect on μ [2]: 0.0006

O=C([O-])O.[Na+] [bicarbonate, sodium bicarbonate]
cell growth with KSR formulation [6]: perform better

TGF-β-1
Self-renew regression Coefficient (Linear) [3]: −0.508 | Self-renew regression Coefficient (Quadratic) [3]: 0.936

IGF-1
Regression coefficient (Quadratic), Integral ([1]; 1st RCCD, R^2 = 86.4%): −1.19 | Regression coefficient (Linear), Px, max ([1]; 2nd RCCD, R^2 = 37.9%): 0.0021 | Regression coefficient (Quadratic), Px, max ([1]; 2nd RCCD, R^2 = 37.9%): −0.0011 | Regression coefficient (Linear), Integral ([1]; 2nd RCCD, R^2 = 62.7%): 17.03 | Regression coefficient (Quadratic), Integral ([1]; 2nd RCCD, R^2 = 62.7%): −4.60 | Regression coefficient (Linear), Integral ([1]; 3rd RCCD, R^2 = 65.8%): 0.24 | Regression coefficient (Quadratic), Integral ([1]; 3rd RCCD, R^2 = 65.8%): 7.12 | Regression coefficient (Linear), Px, max ([1]; 3rd RCCD, R^2 = 86.4%): 0.0003 | Regression coefficient (Quadratic), Px, max ([1]; 3rd RCCD, R^2 = 86.4%): 0.0041 | Regression coefficient (Linear), Px, max ([1]; 4th RCCD, R^2 = 69.0%): 0.0028 | Regression coefficient (Quadratic), Px, max ([1]; 4th RCCD, R^2 = 69.0%): 0.0046 | Regression coefficient (Linear), Integral ([1]; 4th RCCD, R^2 = […]): 3.10 | Regression coefficient (Quadratic), Integral ([1]; 4th RCCD, R^2 = […]): 10.30 | Regression coefficient (Linear), Px, max [2]: 0.0121 | Regression coefficient (Quadratic), Px, max [2]: −0.0036 | Regression coefficient (Linear), Integral [2]: 42.99 | Effect on Integral [2]: 97.69 | Effect on Px, max [2]: 0.0292 | Effect on μ [2]: 0.0027
